Test results published in ChEMBL document CHEMBL1201862, “PubChem BioAssay data set” (2004).
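48-hour exposure; five concentrations; linearly interpolated endpoints. At the GI50, growth is halved.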 Activity calls are given as the source filed them. Cut-off read from the data, not from the text of the source: active = GI50 up to about 1.1 µM and inactive = higher.

Experiments:
Experiment in all cases: NCI anticancer screen, dose series, 48 h
HOP-62 = tested on: HOP-62
SK-MEL-2 = tested on: SK-MEL-2
BT-549 = tested on: BT-549
A549 = tested on: A549
SF-268 = tested on: SF-268
OVCAR-4 = tested on: OVCAR-4
UACC-62 = tested on: UACC-62
MDA-N = tested on: MDA-N
HOP-92 = tested on: HOP-92
SN12C = tested on: SN12C
NCI/ADR-RES = tested on: NCI/ADR-RES
SW-620 = tested on: SW-620
SK-MEL-28 = tested on: SK-MEL-28
UACC-257 = tested on: UACC-257
HL-60 = tested on: HL-60
U-251 = tested on: U-251
OVCAR-3 = tested on: OVCAR-3
RXF 393 = tested on: RXF 393
EKVX = tested on: EKVX
NCI-H23 = tested on: NCI-H23
IGROV-1 = tested on: IGROV-1
NCI-H226 = tested on: NCI-H226
MOLT-4 = tested on: MOLT-4
SNB-75 = tested on: SNB-75
CAKI-1 = tested on: CAKI-1
CCRF-CEM = tested on: CCRF-CEM
MDA-MB-231 = tested on: MDA-MB-231
RPMI-8226 = tested on: RPMI-8226
LOX IMVI = tested on: LOX IMVI
TK-10 = tested on: TK-10
SNB-19 = tested on: SNB-19
UO-31 = tested on: UO-31
OVCAR-8 = tested on: OVCAR-8
DU-145 = tested on: DU-145
SF-295 = tested on: SF-295
Malme-3M = tested on: Malme-3M
OVCAR-5 = tested on: OVCAR-5
KM12 = tested on: KM12
MDA-MB-435 = tested on: MDA-MB-435
SR = tested on: SR
HCT-116 = tested on: HCT-116
PC-3 = tested on: PC-3
786-0 = tested on: 786-0
M14 = tested on: M14
HCT-15 = tested on: HCT-15
NCI-H522 = tested on: NCI-H522
K562 = tested on: K562
NCI-H460 = tested on: NCI-H460
SK-MEL-5 = tested on: SK-MEL-5
ACHN = tested on: ACHN
HT-29 = tested on: HT-29
T47D = tested on: T47D
MCF7 = tested on: MCF7
COLO 205 = tested on: COLO 205
SK-OV-3 = tested on: SK-OV-3
SF-539 = tested on: SF-539
A498 = tested on: A498
HCC 2998 = tested on: HCC 2998
Hs-578T = tested on: Hs-578T

**Q.** For `Cc1ccc(CCCC(=O)O)cc1C`, which GI50 (HOP-62) is on record?
**A.** > 100 µM (inactive)

**Q.** What about the GI50 (SK-MEL-2) of the same compound?
**A.** > 100 µM (inactive)

**Q.** What about the GI50 (BT-549) of the same compound?
**A.** > 100 µM (inactive)

**Q.** And the GI50 (A549)?
**A.** > 100 µM (inactive)

**Q.** What about the GI50 (SF-268) of the same compound?
**A.** 63.7 µM (inactive)

**Q.** And the GI50 (OVCAR-4)?
**A.** > 100 µM (inactive)

**Q.** And the GI50 (UACC-62)?
**A.** > 100 µM (inactive)

**Q.** And the GI50 (MDA-N)?
**A.** > 100 µM (inactive)

**Q.** What about the GI50 (HOP-92) of the same compound?
**A.** > 100 µM (inactive)

**Q.** And the GI50 (SN12C)?
**A.** > 100 µM (inactive)

**Q.** And the GI50 (NCI/ADR-RES)?
**A.** > 100 µM (inactive)

**Q.** What about the GI50 (SW-620) of the same compound?
**A.** > 100 µM (inactive)

**Q.** What about the GI50 (SK-MEL-28) of the same compound?
**A.** > 100 µM (inactive)

**Q.** What about the GI50 (UACC-257) of the same compound?
**A.** > 100 µM (inactive)

**Q.** What about the GI50 (HL-60) of the same compound?
**A.** > 100 µM (inactive)

**Q.** And the GI50 (U-251)?
**A.** > 100 µM (inactive)

**Q.** And the GI50 (OVCAR-3)?
**A.** > 100 µM (inactive)

**Q.** What about the GI50 (RXF 393) of the same compound?
**A.** > 100 µM (inactive)

**Q.** And the GI50 (EKVX)?
**A.** > 100 µM (inactive)

**Q.** What about the GI50 (NCI-H23) of the same compound?
**A.** > 100 µM (inactive)

**Q.** And the GI50 (IGROV-1)?
**A.** > 100 µM (inactive)

**Q.** And the GI50 (NCI-H226)?
**A.** > 100 µM (inactive)

**Q.** And the GI50 (MOLT-4)?
**A.** > 100 µM (inactive)

**Q.** What about the GI50 (SNB-75) of the same compound?
**A.** 39.1 µM (inactive)

**Q.** What about the GI50 (CAKI-1) of the same compound?
**A.** > 100 µM (inactive)

**Q.** What about the GI50 (CCRF-CEM) of the same compound?
**A.** > 100 µM (inactive)

**Q.** And the GI50 (MDA-MB-231)?
**A.** > 100 µM (inactive)

**Q.** And the GI50 (RPMI-8226)?
**A.** > 100 µM (inactive)

**Q.** And the GI50 (LOX IMVI)?
**A.** > 100 µM (inactive)

**Q.** What about the GI50 (TK-10) of the same compound?
**A.** > 100 µM (inactive)

**Q.** What about the GI50 (SNB-19) of the same compound?
**A.** > 100 µM (inactive)

**Q.** And the GI50 (UO-31)?
**A.** > 100 µM (inactive)

**Q.** What about the GI50 (OVCAR-8) of the same compound?
**A.** > 100 µM (inactive)

**Q.** And the GI50 (DU-145)?
**A.** > 100 µM (inactive)

**Q.** What about the GI50 (SF-295) of the same compound?
**A.** > 100 µM (inactive)

**Q.** What about the GI50 (Malme-3M) of the same compound?
**A.** > 100 µM (inactive)

**Q.** And the GI50 (OVCAR-5)?
**A.** > 100 µM (inactive)

**Q.** And the GI50 (KM12)?
**A.** > 100 µM (inactive)

**Q.** And the GI50 (MDA-MB-435)?
**A.** > 100 µM (inactive)

**Q.** And the GI50 (SR)?
**A.** > 100 µM (inactive)

**Q.** What about the GI50 (HCT-116) of the same compound?
**A.** > 100 µM (inactive)

**Q.** What about the GI50 (PC-3) of the same compound?
**A.** > 100 µM (inactive)

**Q.** What about the GI50 (786-0) of the same compound?
**A.** > 100 µM (inactive)

**Q.** What about the GI50 (M14) of the same compound?
**A.** > 100 µM (inactive)

**Q.** And the GI50 (HCT-15)?
**A.** > 100 µM

**Q.** And the GI50 (NCI-H522)?
**A.** > 100 µM (inactive)

**Q.** And the GI50 (K562)?
**A.** > 100 µM (inactive)

**Q.** What about the GI50 (NCI-H460) of the same compound?
**A.** > 100 µM (inactive)

**Q.** And the GI50 (SK-MEL-5)?
**A.** > 100 µM (inactive)

**Q.** What about the GI50 (ACHN) of the same compound?
**A.** > 100 µM (inactive)

**Q.** And the GI50 (HT-29)?
**A.** > 100 µM (inactive)

**Q.** Which results are given for `Cc1c(N2C(=O)C(Cl)C2/C=C/c2ccccc2)c(=O)n(-c2ccccc2)n1C` (stereo unspecified)?
**A.** GI50 (HOP-62): 22.8 µM (inactive); GI50 (SK-MEL-2): 17.3 µM (inactive); GI50 (BT-549): 33.4 µM (inactive); GI50 (A549): 26.4 µM (inactive); GI50 (SF-268): 29.6 µM (inactive); GI50 (OVCAR-4): 29.5 µM (inactive); GI50 (UACC-62): 14.9 µM (inactive); GI50 (MDA-N): 14.4 µM (inactive); GI50 (HOP-92): 14.1 µM (inactive); GI50 (SN12C): 20.4 µM (inactive); GI50 (T47D): 19.8 µM (inactive); GI50 (NCI/ADR-RES): > 100 µM (inactive); GI50 (SW-620): 24.2 µM (inactive); GI50 (UACC-257): 4.68 µM (inactive); GI50 (HL-60): 20.1 µM (inactive); GI50 (U-251): 6.22 µM (inactive); GI50 (OVCAR-3): 20.8 µM (inactive); GI50 (RXF 393): 26.9 µM (inactive); GI50 (EKVX): 6.41 µM (inactive); GI50 (NCI-H23): 7.59 µM (inactive); GI50 (IGROV-1): 17.1 µM (inactive); GI50 (MCF7): 24.7 µM (inactive); GI50 (NCI-H226): 25.1 µM (inactive); GI50 (MOLT-4): 13.4 µM (inactive); GI50 (COLO 205): 14.1 µM (inactive); GI50 (SNB-75): 34.1 µM (inactive); GI50 (CAKI-1): 53 µM (inactive); GI50 (SK-OV-3): 32 µM (inactive); GI50 (CCRF-CEM): 16.1 µM (inactive); GI50 (MDA-MB-231): 25.4 µM (inactive); GI50 (RPMI-8226): 11.3 µM (inactive); GI50 (LOX IMVI): 17.3 µM (inactive); GI50 (TK-10): 14.3 µM (inactive); GI50 (UO-31): 28.1 µM (inactive); GI50 (OVCAR-8): 22.1 µM (inactive); GI50 (DU-145): 34.6 µM (inactive); GI50 (SF-295): 22.1 µM (inactive); GI50 (Malme-3M): 5.75 µM (inactive); GI50 (OVCAR-5): 43.9 µM (inactive); GI50 (KM12): 12.7 µM (inactive); GI50 (MDA-MB-435): 12.1 µM (inactive); GI50 (SR): 17.5 µM (inactive); GI50 (HCT-116): 16.9 µM (inactive); GI50 (PC-3): 31.6 µM (inactive); GI50 (786-0): 24.9 µM (inactive); GI50 (M14): 17.2 µM (inactive); GI50 (NCI-H522): 14.4 µM (inactive); GI50 (K562): 6.58 µM (inactive); GI50 (NCI-H460): 26.7 µM (inactive); GI50 (SK-MEL-5): 15.8 µM (inactive); GI50 (SF-539): 22.4 µM (inactive); GI50 (ACHN): 20.3 µM (inactive); GI50 (HT-29): 24.4 µM (inactive)

**Q.** What does the source list for `Oc1ccc(-c2nc3cc(C(F)(F)F)ccc3n2CC2CCCN3CCCCC23)cc1` (stereo unspecified)?
**A.** GI50 (HOP-62): 12.1 µM (inactive); GI50 (SK-MEL-2): 14.7 µM (inactive); GI50 (SF-268): 14.8 µM (inactive); GI50 (OVCAR-4): 15.1 µM (inactive); GI50 (MDA-N): 16.2 µM (inactive); GI50 (HOP-92): 14.9 µM (inactive); GI50 (T47D): 18.2 µM (inactive); GI50 (NCI/ADR-RES): 16.5 µM (inactive); GI50 (SW-620): 15.1 µM (inactive); GI50 (SK-MEL-28): 16.1 µM (inactive); GI50 (UACC-257): 16.3 µM (inactive); GI50 (HL-60): 3.01 µM (inactive); GI50 (U-251): 14.8 µM (inactive); GI50 (OVCAR-3): 13 µM (inactive); GI50 (RXF 393): 15.5 µM (inactive); GI50 (EKVX): 14.8 µM (inactive); GI50 (NCI-H23): 16.5 µM (inactive); GI50 (IGROV-1): 12.7 µM (inactive); GI50 (A498): 14.9 µM (inactive); GI50 (MCF7): 12.6 µM (inactive); GI50 (NCI-H226): 16.3 µM (inactive); GI50 (MOLT-4): 15 µM (inactive); GI50 (SNB-75): 14.9 µM (inactive); GI50 (CAKI-1): 18 µM (inactive); GI50 (SK-OV-3): 12.6 µM (inactive); GI50 (CCRF-CEM): 14.7 µM (inactive); GI50 (MDA-MB-231): 14.5 µM (inactive); GI50 (RPMI-8226): 15.6 µM (inactive); GI50 (HCC 2998): 9.75 µM (inactive); GI50 (LOX IMVI): 15.4 µM (inactive); GI50 (Hs-578T): 15.8 µM (inactive); GI50 (TK-10): 16.9 µM (inactive); GI50 (UO-31): 11.7 µM (inactive); GI50 (OVCAR-8): 16 µM (inactive); GI50 (DU-145): 17.1 µM (inactive); GI50 (SF-295): 13.4 µM (inactive); GI50 (OVCAR-5): 13.8 µM (inactive); GI50 (KM12): 15.3 µM (inactive); GI50 (MDA-MB-435): 13.5 µM (inactive); GI50 (SR): 16.6 µM (inactive); GI50 (HCT-116): 15.7 µM (inactive); GI50 (PC-3): 14.1 µM (inactive); GI50 (786-0): 17 µM (inactive); GI50 (M14): 16.3 µM (inactive); GI50 (HCT-15): 16.1 µM; GI50 (NCI-H522): 15.4 µM (inactive); GI50 (K562): 15.5 µM (inactive); GI50 (NCI-H460): 15.1 µM (inactive); GI50 (SK-MEL-5): 14.1 µM (inactive); GI50 (SF-539): 18.7 µM (inactive); GI50 (ACHN): 15 µM (inactive); GI50 (HT-29): 13.4 µM (inactive)
